“And” between values parts separate entries of the source, which are not always exact repeats. Equal entries are not always repeated.
Tested on: mouse eye
Experiment: Intraocular pressure (TonoLab) in mice after injection of ethacrynic acid, with or without healon, into the episcleral vein
Type: in vivo
Protocol: Basline intraocular pressures were measured in both eyes of the mouse using a TonoLab device. A piece of a latex glove was placed over the equator of the mouse eye. Initially, a glass microcannula was used to inject either (a) a solution of ethacrynic acid alone or (b) saline into the episcleral vein at the limbus of the right eye of each mouse. The solution or saline was injected until blanching was observed 360 degrees around the limbus. The piece of latex was then removed from the eye. Intraocular pressures were then measured daily and then weekly in both eyes of all mice. The ethacrynic acid injection alone produced its most profound effect at day 2; however, some effect was maintained until day 7. The results of the above protocol are provided in Table 1, and also shown in FIG. 4, where ethacrynic acid is noted as ECA (squares), saline control is BSS (triangles), and non-treated control is control (diamonds).
Next, ethacrynic acid was combined with healon in a 3:1 ratio. Again, a glass microcannula was used to inject either the ethacrynic acid/healon solution or BSS solution as the control. The ethacrynic acid/healon solution produced its most profound effect at 2 weeks but lasted 3 weeks. The results are provided in Table 2 and also shown in FIG. 3, where ethacrynic acid/healon is designated with squares, BSS as diamonds, and non injected controls as triangles.

[1] = ethacrynic acid injection alone, episcleral vein, mouse

SMILES: C=C(CC)C(=O)c1ccc(OCC(=O)O)c(Cl)c1Cl [ECA, [2,3-dichloro-4-(2-methylene-1-oxobutyl)phenoxy]acetic acid]
- Reduction of intraocular pressure (IOP) versus control (FIG. 5): reduces intraocular pressure (IOP) greater than control
- Animal status (mouse ECA6) (Table 1, ethacrynic acid alone, 1 wk): dead
- Intraocular pressure, OD, individual mouse (Table 2, ethacrynic acid combined with healon 3:1, episcleral vein injection, 1 day): 14 and 13 (2×) and 9 (2×)
- Avg. intraocular pressure, OD (Table 2, ethacrynic acid combined with healon 3:1, episcleral vein injection, 1 day, group avg (0 hr base avg 16.6)): 12.25
- Intraocular pressure, OD, individual mouse (Table 2, ethacrynic acid combined with healon 3:1, episcleral vein injection, 2 day): 12 (2×) and 19 (2×) and 22 and 16
- Avg. intraocular pressure, OD (Table 2, ethacrynic acid combined with healon 3:1, episcleral vein injection, 2 day, group avg): 16.8
- Intraocular pressure, OD, individual mouse (Table 2, ethacrynic acid combined with healon 3:1, episcleral vein injection, 5 day): 13 and 8 and 17 and 14 and 16 and 10
- Avg. intraocular pressure, OD (Table 2, ethacrynic acid combined with healon 3:1, episcleral vein injection, 5 day, group avg): 13.6
- Intraocular pressure, OD, individual mouse (Table 2, ethacrynic acid combined with healon 3:1, episcleral vein injection, 7 day): 10 (3×) and 9 and 7 and 20
- Avg. intraocular pressure, OD (Table 2, ethacrynic acid combined with healon 3:1, episcleral vein injection, 7 day, group avg): 11.2
- Intraocular pressure, OD, individual mouse (Table 2, ethacrynic acid combined with healon 3:1, episcleral vein injection, 14 day): 16 and 12 and 14 and 18 (2×)
- Avg. intraocular pressure, OD (Table 2, ethacrynic acid combined with healon 3:1, episcleral vein injection, 14 day, group avg): 15
- Intraocular pressure, OD, individual mouse (Table 2, ethacrynic acid combined with healon 3:1, episcleral vein injection, 21 day): 16 and 7 and 14 (2×) and 8
- Avg. intraocular pressure, OD (Table 2, ethacrynic acid combined with healon 3:1, episcleral vein injection, 21 day, group avg): 12.75
- Intraocular pressure, OD, individual mouse (Table 2, ethacrynic acid combined with healon 3:1, episcleral vein injection, 35 day): 11 and 8 and 15 and 17 and 14
- Avg. intraocular pressure, OD (Table 2, ethacrynic acid combined with healon 3:1, episcleral vein injection, 35 day, group avg): 12.75
- Intraocular pressure, OD, individual mouse (Table 2, ethacrynic acid combined with healon 3:1, episcleral vein injection, 42 day): 15 and 12 (2×) and 8 and 11
- Avg. intraocular pressure, OD (Table 2, ethacrynic acid combined with healon 3:1, episcleral vein injection, 42 day, group avg): 14.11
- Intraocular pressure, OD, individual mouse (Table 2, ethacrynic acid combined with healon 3:1, episcleral vein injection, 56 day): 13 and 10 (2×) and 7 and 17
- Avg. intraocular pressure, OD (Table 2, ethacrynic acid combined with healon 3:1, episcleral vein injection, 56 day, group avg): 13.47
- Intraocular pressure, OD, individual mouse (Table 2, ethacrynic acid combined with healon 3:1, episcleral vein injection, 64 day): 16 and 12 and 9 and 15 and 14
- Avg. intraocular pressure, OD (Table 2, ethacrynic acid combined with healon 3:1, episcleral vein injection, 64 day, group avg): 13.83
- Intraocular pressure, OD, individual mouse (Table 2, ethacrynic acid combined with healon 3:1, episcleral vein injection, 74 day (first 74 day column pair)): 19 and 14 and 17 and 18
- Avg. intraocular pressure, OD (Table 2, ethacrynic acid combined with healon 3:1, episcleral vein injection, 74 day (first 74 day column pair), group avg): 17
- Intraocular pressure, OD, individual mouse (Table 2, ethacrynic acid combined with healon 3:1, episcleral vein injection, 74 day (second 74 day column pair)): 17 and 11 and 16 (2×)
- Avg. intraocular pressure, OD (Table 2, ethacrynic acid combined with healon 3:1, episcleral vein injection, 74 day (second 74 day column pair), group avg): 19
- Animal status (mouse ECA6) (Table 2, 14 day): dead
- Intraocular pressure, OD, individual mouse (ethacrynic acid alone, episcleral vein injection right eye, 1 wk): 16 and 12 and 14 and 18
- Avg. intraocular pressure, OD (ethacrynic acid alone, episcleral vein injection right eye, 1 wk, group avg (0 hr base avg 16.6)): 15
- Intraocular pressure, OD, individual mouse (ethacrynic acid alone, episcleral vein injection right eye, 1 day): 14 and 13 (2×) and 9
- Avg. intraocular pressure, OD (ethacrynic acid alone, episcleral vein injection right eye, 1 day, group avg (0 hr base avg 16.6)): 12.25
- Intraocular pressure, OD, individual mouse (ethacrynic acid alone, episcleral vein injection right eye, 2 day): 12 (2×) and 19 (2×) and 22
- Avg. intraocular pressure, OD (ethacrynic acid alone, episcleral vein injection right eye, 2 day, group avg (0 hr base avg 16.6)): 16.8
- Intraocular pressure, OD, individual mouse (ethacrynic acid alone, episcleral vein injection right eye, 5 day): 13 and 8 and 17 and 14 and 16
- Avg. intraocular pressure, OD (ethacrynic acid alone, episcleral vein injection right eye, 5 day, group avg (0 hr base avg 16.6)): 13.6
- Intraocular pressure, OD, individual mouse (ethacrynic acid alone, episcleral vein injection right eye, 6 day): 10 (2×) and 9 and 7 and 20
- Avg. intraocular pressure, OD (ethacrynic acid alone, episcleral vein injection right eye, 6 day, group avg (0 hr base avg 16.6)): 11.2
- Effect on intraocular pressure maintained until [1]: 7 days
- Time of most profound effect on intraocular pressure [1]: 2 days

From US10485550B2, “Ophthalmic drug delivery device and methods of use” (priority 2012, dated 2019)
